Experimental data as given in publication PMC11414674, “Cryo-EM structure of ACE2-SIT1 in complex with tiagabine” (The Journal of Biological Chemistry, 2024).

Assays:
[1] = molecular target: T1, SIT1 (SLC6A20) (Homo sapiens, UniProt Q9NP91); assay: […]proline uptake in Xenopus oocytes, inhibitor at […]; type: cell-based; parameters: with ACE2; conditions: read-out: % inhibition at 100 μM
[2] = molecular target: T1, SIT1 (SLC6A20); assay: cryo-EM structure at […] Å; IC50 from […]proline uptake in Xenopus oocytes expressing SIT1-ACE2 ([…] proline); type: cell-based; parameters: full-length human SIT1, N-terminal FLAG tag, in complex with full-length ACE2; with ACE2
[3] = molecular target: T2, B0AT2 (SLC6A15) (Homo sapiens, UniProt Q9H2J7); assay: labelled leucine uptake in Xenopus oocytes, tiagabine at […]; type: cell-based
T2 sequence (Q9H2J7 1-730): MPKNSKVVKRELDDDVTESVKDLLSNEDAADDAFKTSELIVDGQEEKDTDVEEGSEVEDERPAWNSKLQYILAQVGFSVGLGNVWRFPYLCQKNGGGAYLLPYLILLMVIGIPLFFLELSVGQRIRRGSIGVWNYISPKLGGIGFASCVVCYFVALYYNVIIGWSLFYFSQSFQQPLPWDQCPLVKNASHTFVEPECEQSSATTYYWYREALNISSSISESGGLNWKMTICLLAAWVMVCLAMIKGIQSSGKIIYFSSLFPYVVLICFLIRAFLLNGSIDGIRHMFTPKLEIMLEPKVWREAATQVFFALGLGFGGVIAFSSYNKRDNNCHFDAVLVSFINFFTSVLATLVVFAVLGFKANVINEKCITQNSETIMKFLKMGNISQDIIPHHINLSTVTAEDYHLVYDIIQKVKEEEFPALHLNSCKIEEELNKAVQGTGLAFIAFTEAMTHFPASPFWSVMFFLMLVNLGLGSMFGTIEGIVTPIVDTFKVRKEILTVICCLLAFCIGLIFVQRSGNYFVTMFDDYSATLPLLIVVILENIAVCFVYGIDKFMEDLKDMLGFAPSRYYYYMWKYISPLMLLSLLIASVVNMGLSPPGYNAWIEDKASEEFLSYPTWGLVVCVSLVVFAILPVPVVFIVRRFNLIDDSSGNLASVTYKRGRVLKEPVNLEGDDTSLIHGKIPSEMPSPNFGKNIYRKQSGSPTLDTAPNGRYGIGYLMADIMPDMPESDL

[4] = substrate: O=C(O)[C@@H]1CCCN1; assay: cells, lysate or membranes; conditions: Na+ and Cl- orthosteric substrate site

T1 sequence (Q9BYF1 18-805 partner, one chain of several): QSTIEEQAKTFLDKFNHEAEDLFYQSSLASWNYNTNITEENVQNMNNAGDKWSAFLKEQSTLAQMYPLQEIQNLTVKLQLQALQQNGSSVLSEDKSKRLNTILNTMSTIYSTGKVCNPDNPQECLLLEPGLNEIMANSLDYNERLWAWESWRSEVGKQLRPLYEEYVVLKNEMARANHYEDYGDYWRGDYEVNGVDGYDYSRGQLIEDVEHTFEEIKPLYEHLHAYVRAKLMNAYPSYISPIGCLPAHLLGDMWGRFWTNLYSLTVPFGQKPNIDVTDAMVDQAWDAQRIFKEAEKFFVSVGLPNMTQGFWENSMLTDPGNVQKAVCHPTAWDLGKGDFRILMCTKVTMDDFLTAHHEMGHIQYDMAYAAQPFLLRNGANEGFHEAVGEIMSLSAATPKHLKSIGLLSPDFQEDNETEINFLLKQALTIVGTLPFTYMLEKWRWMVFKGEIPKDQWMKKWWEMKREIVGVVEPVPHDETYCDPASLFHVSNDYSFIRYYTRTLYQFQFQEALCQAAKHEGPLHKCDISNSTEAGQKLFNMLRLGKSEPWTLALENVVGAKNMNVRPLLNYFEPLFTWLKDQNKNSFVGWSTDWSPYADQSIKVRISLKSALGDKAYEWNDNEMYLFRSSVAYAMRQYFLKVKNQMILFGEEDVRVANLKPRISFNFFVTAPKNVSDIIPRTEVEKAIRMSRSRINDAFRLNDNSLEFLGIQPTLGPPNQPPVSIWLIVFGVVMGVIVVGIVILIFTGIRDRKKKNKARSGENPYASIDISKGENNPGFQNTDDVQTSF

O=C(O)C1=CCCN(CCOC(c2ccc(C(F)(F)F)cc2)c2ccc(C(F)(F)F)cc2)C1 [CI966] gave an inhibition at 100 µM [1] of 53%.

With O=C(O)C1CCCN(CCC=C(c2ccccc2)c2ccccc2)C1 (centres unmarked) [SKF89976A] the inhibition at 100 µM [1] was 58%.

For Cc1ccsc1C(=CCCN1CCC[C@@H](C(=O)O)C1)c1sccc1C [tiagabine], the IC50 [2] was 18 ± 4 µM and the “labelled leucine uptake in Xenopus oocytes, tiagabine at 100 μM” value [3] was “The branched-chain amino acid transporter B^0AT2 (SLC6A15) was similarly sensitive to inhibition by Tiagabine”.

B1: SIT1 (SLC6A20) (Homo sapiens) (protein)
chain: MEKARPLWANSLQFVFACISYAVGLGNVWRFPYLCQMYGGGSFLVPYIIMLIVEGMPLLYLELAVGQRMRQGSIGAWRTISPYLSGVGVASVVVSFFLSMYYNVINAWAFWYLFHSFQDPLPWSVCPLNGNHTGYDEECEKASSTQYFWYRKTLNISPSLQENGGVQWEPALCLLLAWLVVYLCILRGTESTGKVVYFTASLPYCVLIIYLIRGLTLHGATNGLMYMFTPKIEQLANPKAWINAATQIFFSLGLGFGSLIAFASYNEPSNNCQKHAIIVSLINSFTSIFASIVTFSIYGFKATFNYENCLKKVSLLLTNTFDLEDGFLTASNLEQVKGYLASAYPSKYSEMFPQIKNCSLESELDTAVQGTGLAFIVYTEAIKNMEVSQLWSVLYFFMLLMLGIGSMLGNTAAILTPLTDSKIISSHLPKEAISGLVCLVNCAIGMVFTMEAGNYWFDIFNDYAATLSLLLIVLVETIAVCYVYGLRRFESDLKAMTGRAVSWYWKVMWAGVSPLLIVSLFVFYLSDYILTGTLKYQAWDASQGQLVTKDYPAYALAVIGLLVASSTMCIPLAALGTFVQRRLKRGDADPVA
With B1 the Km [4] was 130 µM.
